Columns and labels:
Assay type in all cases: cell-based, rat
soleus muscle [1] = assay: Individual free fatty acids by gas chromatography in isolated soleus muscle from normally fed rats
Protocol: Animal models. Normallyfed rats. All protocols were approved by the University of Auckland Animal Ethics Committee. Male Wistar rats, (age=50 d) weighing 200-250 g, were housed in a constant 12 h/12 h-light/dark cycle and received standard rat-chow (Diet 86, NRM, Auckland) and water ad libitum. The standard diet contained 5% fat (w/w), which comprised mainly beef tallow. The triglyceride, total and free fatty acid contents of representative samples of this diet were analyzed, and are shown in Table 3. Rats were anaesthetized by intraperitoneal injection of sodium pentobarbital (45 mg/kg body weight) then sacrificed by cervical dislocation.
(§1) Soleus muscle tissue isolation and incuhation.Immersion and incubation media was Krebs-Henseleit buffer (KHB) containing 118.5 mM NaCl, 4.75 mM KCl, 1.18 mM MgSO4.7H2O and KH2PO4, 24.8 mM NaHCO3, 2.54 mM CaCl2 and 10 mM d-glucose. The medium was gassed continuously with 95% O2/5% CO2. […] Soleus muscles of both legs were excised keeping the tissue immersed in KHB; muscles were separated into two equal parts and transferred to the incubation flasks. At the completion of incubation the muscles were snap frozen in liquid nitrogen, and then trimmed of connective tissue and all visible fat. The muscle strips were stored at −80° C. until analysis.
(§2) Lipid extraction and chromatographic separation of fatty acids. Total lipids were extracted from muscle strips by a modified version of the method of Bligh and Dyer (Gorski et al., 1988, Mol & Cell Biochem 178:113-118; 1. Bligh et al., 1959, Can J Biochem Physiol 37: 911-917). Muscles were homogenised (Soniprep 150) in 0.4 ml of deionised water. Solvent volumes used herein were varied according to the water content of the muscle (ie muscle weight) as described (Bligh & Dyer, supra). 2 vols of methanol containing 0.005% butylated hydroxy toluene (BHT) and 1 vol chloroform were added to the muscle suspension. Homogenates were vortexed at maximum speed for 2 minutes and centrifuged at 2,500 g for 4 minutes. Supernatants were recovered and pellets re-extracted with 2 vol methanol, 1 vol chloroform and 0.8 vol 0.2 N HCl. Residues were vortexed for 2 min then centrifuged at 3,500 g for 3 min. After centrifugation the combined supernatants were diluted with 2v each of milli Q water and chloroform and the phases separated by centrifugation at 3,500 g for 4 minutes. The lower chloroform phase was recovered, neutralised by dropwise addition of 0.2 N methanolic NH4OH and evaporated down in a stream of N2. The samples were stored at −80° C. until required.
(§3) Aminopropyl phase (250 mg) was packed into 16 ml teflon columns with teflon frits placed at the top and bottom of the bonded phase. Columns were placed in a Vac Elut apparatus and washed twice with 2 ml portions of hexane (Prasad et al., 1988, J Chromato 428: 221-228; Kaluzny et al., 1985, J Lipid Res 26: 135-140). The dry lipid samples were taken up in two 0.150 ml portions of chloroform and applied to the column under atmospheric pressure. After adsorption the neutral lipids were eluted with 4 ml of chloroform-2-propanol (2:1, v/v) and the free fatty acids eluted with 4 ml of 2% acetic acid in diethyl ether. The solvent containing the free fatty acids was dried under a stream of N2.
Gas-liquid chromatographic analysis. Dry free fatty acid residues were processed for derivatisation of methyl esters by the boron trifluoride-methanol method (Prasad, supra). 1 ml of boron trifluoride in methanol (BF3) was added to each sample, the sample vials were heated at 70° C. for 5 minutes, shaken vigorously, and baked for a further 10 minutes. Once the samples reached room temperature 0.5 ml milli Q water was added, the sample vials shaken, 0.1 ml heptane was added and the sample shaken again. 0.05 ml of the top heptane layer was removed for GLC analysis. […]

soleus muscle [2] = assay: Triglyceride and free fatty acid content (enzymatic) in isolated soleus muscle of rats fed high fat diets; settings: 1 h
Source text: High-fatted rats. Groups of male Wistar rats (n=21/diet) were ad libitum fed high-fat diets containing standard rat chow to which 40% (w/w) of lard, corn oil or olive oil had been added, from the time of weaning (age=21 d) until sacrifice at 50 d. Triacylglycerol from lard contains predominantly saturated fatty acids; that from corn oil […], see Table 4.
as §1, §2, §3
Determination of tissue free fatty acids and triacylglycerol concentration by enzymatic analyses. Free fatty acids were separated from total lipid, evaporated under a stream of N2 and stored at −80° C. until analysis. Samples were dissolved in 50 μl of warm ethanol (35-40° C.), and 0.625 ml of a Triton X-100 (6% w/v) solution was added once the ethanol reached room temperature. The solution was stirred for 30 min, then made up to 0.825 ml with the Triton solution. Free fatty acids were quantified using a commercial method (Boehringer Mannheim) adapted for micro analyses (Cobas Mira, Roche Diagnostics), with palmitic acid standards. Triacyl glycerol levels were quantified in the total lipid fraction (Pointe Scientific) with a glycerol standard.
Total lipid was extracted and quantitated. Results are shown in FIGS. 18A NEFA and 18B triglyceride.

soleus muscle [3] = assay: Lipid metabolites (free fatty acid, glycerol, triglyceride; enzymatic analysis) in isolated soleus muscle from normally fed rats
[4] = normally fed rats, hormone 1 hour, GC

Substance: rat CGRP-1
- Total free fatty acids (soleus muscle [1]; 1 hour, GC, hormone concentrations 100 nM for all): 0.691 ± 0.04 nmol/g wwt
- free fatty acid C14:0 as percentage of total resting fatty acid (soleus muscle [1]; normally fed rats, 1 hour): 3.6%
- free fatty acid C15:0 as percentage of total resting fatty acid (soleus muscle [1]; normally fed rats, 1 hour): 12.9%
- free fatty acid C16:0 as percentage of total resting fatty acid (soleus muscle [1]; normally fed rats, 1 hour): 2.9%
- free fatty acid C16:1 (n-7) as percentage of total resting fatty acid (soleus muscle [1]; normally fed rats, 1 hour): 21.6%
- free fatty acid C16:1 (n-9) as percentage of total resting fatty acid (soleus muscle [1]; normally fed rats, 1 hour): 7.5%
- free fatty acid C17:0 as percentage of total resting fatty acid (soleus muscle [1]; normally fed rats, 1 hour): 10.7%
- free fatty acid C18:0 as percentage of total resting fatty acid (soleus muscle [1]; normally fed rats, 1 hour): 3.6%
- free fatty acid C18:1 (n-7) as percentage of total resting fatty acid (soleus muscle [1]; normally fed rats, 1 hour): 1.4%
- free fatty acid C18:1 (n-9) as percentage of total resting fatty acid (soleus muscle [1]; normally fed rats, 1 hour): 1.8%
- free fatty acid C18:2 as percentage of total resting fatty acid (soleus muscle [1]; normally fed rats, 1 hour): 1.0%
- free fatty acid C18:3 as percentage of total resting fatty acid (soleus muscle [1]; normally fed rats, 1 hour): 2.1%
- free fatty acid C20:0 as percentage of total resting fatty acid (soleus muscle [1]; normally fed rats, 1 hour): 3.6%
- free fatty acid C20:4 as percentage of total resting fatty acid (soleus muscle [1]; normally fed rats, 1 hour): 1.1%
- free fatty acid C20:5 as percentage of total resting fatty acid (soleus muscle [1]; normally fed rats, 1 hour): 1.0%
- free fatty acid C22:4 as percentage of total resting fatty acid (soleus muscle [1]; normally fed rats, 1 hour): 8.1%
- free fatty acid C22:6 as percentage of total resting fatty acid (soleus muscle [1]; normally fed rats, 1 hour): 2.7%
- free fatty acid adrenic C22:4 (soleus muscle [1]; [4]): 0.007 ± 0.002 nmol/g wwt
- free fatty acid arachidic C20:0 (soleus muscle [1]; [4]): 0.007 ± 0.0008 nmol/g wwt
- free fatty acid arachidonic C20:4 (soleus muscle [1]; [4]): 0.018±0.002 nmol/g wwt
- free fatty acid cervonic C22:6 (soleus muscle [1]; [4]): 0.022±0.002 nmol/g wwt
- free fatty acid linoleic C18:2 (soleus muscle [1]; [4]): 0.057 ± 0.006 nmol/g wwt
- free fatty acid linolenic C18:3 (soleus muscle [1]; [4]): 0.005 ± 0.0013 nmol/g wwt
- free fatty acid margaric C17:0 (soleus muscle [1]; [4]): 0.015 ± 0.0015 nmol/g wwt
- free fatty acid myristic C14:0 (soleus muscle [1]; [4]): 0.028 ± 0.001 nmol/g wwt
- free fatty acid oleic C18:1 (soleus muscle [1]; [4]): 0.09 ± 0.0075 nmol/g wwt
- free fatty acid palmitic C16:0 (soleus muscle [1]; [4]): 0.23 ± 0.01 nmol/g wwt
- free fatty acid palmitoleic (n-7) C16:1 (soleus muscle [1]; [4]): 0.022 ± 0.002 nmol/g wwt
- free fatty acid palmitoleic (n-9) C16:1 (soleus muscle [1]; [4]): 0.008±0.0006 nmol/g wwt
- free fatty acid pentadecanoic C15:0 (soleus muscle [1]; [4]): 0.01 ± 001 nmol/g wwt
- free fatty acid stearic C18:0 (soleus muscle [1]; [4]): 0.15 ± 0.01 nmol/g wwt
- free fatty acid timnodonic C20:5 (soleus muscle [1]; [4]): 0.003 ± 0.0005 nmol/g wwt
- free fatty acid vaccenic C18:1 (soleus muscle [1]; [4]): 0.017 ± 0.0015 nmol/g wwt
- soleus muscle triglyceride content (soleus muscle [2]; diet with 40% added lard, 100 nM amylin or CGRP-1, 4.4 μM norepinephrine, control 1.14±0.16): 0.75 ± 0.08 µmol/g
- soleus muscle free fatty acid content (soleus muscle [2]; diet with 40% added lard, 100 nM amylin or CGRP-1, 4.4 μM norepinephrine, control 43±8): 64 ± 7 nmol/g
- soleus muscle triglyceride content (soleus muscle [2]; diet with 40% corn oil, 100 nM, control 0.89±0.06 μmol/g): 0.48±0.06 [mol/g
- soleus muscle free fatty acid content (soleus muscle [2]; diet with 40% corn oil, 100 nM, control 35±4): 99 ± 17 nmol/g
- soleus muscle triglyceride content (soleus muscle [2]; diet with 40% olive oil, 100 nM, control 0.83±0.1): 0.52 ± 0.08 µmol/g
- soleus muscle free fatty acid content (soleus muscle [2]; diet with 40% olive oil, 100 nM, control 15±3): 55 ± 14 nmol/g
- soleus muscle free fatty acid concentration, agonist alone (soleus muscle [3]; 1 pM CGRP, 1 h (FIG. 3C)): 166 ± 18 nmol/g
- soleus muscle free fatty acid content, agonist alone (soleus muscle [3]; 100 nM, 1 h, normal-fed rats (FIG. 3A, 3B)): 334 ± 52 nmol/g
- triacylglycerol (triglyceride) content (soleus muscle [3]; soleus, normally fed rats, 60-min, 100 nM amylin or CGRP-1, 4.4 μM norepinephrine, control 1.17±0.15, not significant): 1.9 ± 0.23 µmol/g
- intramuscular glycerol content (soleus muscle [3]; soleus, normally fed rats, 1 h, 100 nM amylin or CGRP-1, 4.4 μM norepinephrine, control 0.07±0.007): 0.04 ± 0.008 nmol/g

Source: US20040038861A1, “Methods and compositions for normalizing lipid levels in mammalian tissues” (priority 2001, published 2004)
